Measured values reported in ChEMBL document CHEMBL3580622 (J Nat Prod, 2015).

Columns and labels:
SMMC-7721 = experiment: Cytotoxicity against human SMMC7721 cells assessed as reduction in cell viability after 48 hrs by MTT assay; assay type: functional, cell-based; conditions: SMMC-7721, 48 h
MCF7 = experiment: Cytotoxicity against human MCF7 cells assessed as reduction in cell viability after 48 hrs by MTT assay; assay type: functional, cell-based; conditions: MCF7, 48 h
HL-60 = experiment: Cytotoxicity against human HL60 cells assessed as reduction in cell viability after 48 hrs by MTT assay; assay type: functional, cell-based; conditions: HL-60, 48 h
A549 = experiment: Cytotoxicity against human A549 cells assessed as reduction in cell viability after 48 hrs by MTT assay; assay type: functional, cell-based; conditions: A549, 48 h
SW480 = experiment: Cytotoxicity against human SW480 cells assessed as reduction in cell viability after 48 hrs by MTT assay; assay type: functional, cell-based; conditions: SW480, 48 h
Acetylcholinesterase = Acetylcholinesterase (Homo sapiens, UniProt P22303); experiment: Inhibition of human erythrocytes acetylcholinesterase after 30 mins using S-acetylthiocholine iodide substrate by spectrophotometry based Ellman method
Sequence of Acetylcholinesterase (P22303 whole entry): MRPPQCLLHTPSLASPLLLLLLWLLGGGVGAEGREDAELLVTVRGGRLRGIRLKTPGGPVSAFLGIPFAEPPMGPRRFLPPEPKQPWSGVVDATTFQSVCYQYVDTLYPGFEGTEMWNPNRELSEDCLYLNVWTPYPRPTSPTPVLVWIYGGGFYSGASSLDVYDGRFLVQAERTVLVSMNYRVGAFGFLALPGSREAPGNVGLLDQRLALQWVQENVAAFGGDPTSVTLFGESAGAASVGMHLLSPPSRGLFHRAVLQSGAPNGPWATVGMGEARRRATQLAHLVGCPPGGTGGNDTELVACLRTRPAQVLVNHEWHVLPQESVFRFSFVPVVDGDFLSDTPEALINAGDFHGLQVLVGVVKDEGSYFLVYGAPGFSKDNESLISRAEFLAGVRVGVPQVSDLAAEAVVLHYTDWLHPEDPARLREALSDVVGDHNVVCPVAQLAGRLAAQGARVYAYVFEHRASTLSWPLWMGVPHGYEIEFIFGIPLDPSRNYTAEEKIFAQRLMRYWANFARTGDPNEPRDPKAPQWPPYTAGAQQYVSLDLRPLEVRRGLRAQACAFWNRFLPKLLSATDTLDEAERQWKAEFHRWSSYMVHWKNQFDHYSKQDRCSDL

Row | Compound | IC50 (SMMC-7721) [µM] | IC50 (MCF7) [µM] | IC50 (HL-60) [µM] | IC50 (A549) [µM] | IC50 (SW480) [µM] | IC50 (Acetylcholinesterase) [µM]
1 | CC(C)=CCC1(CC=C(C)C)C(=O)[C@]2(C[C@H]3[C@@H](CC[C@@]3(C)O)[C@](C)(O)C2)C(=O)C(C(=O)C(C)C)=C1O | > 40 | > 40 | > 40 | > 40 | > 40 | –
2 | CC(C)=CCC[C@]1(C)[C@@H](CC=C(C)C)C[C@]2(CC=C(C)C)C(=O)C(CC=C(C)C)=C(O)[C@@]1(C(=O)C(C)C)C2=O | > 40 | > 40 | > 40 | > 40 | > 40 | –
3 | CC(C)=CCC[C@]1(C)[C@@H](CC=C(C)C)C[C@]23C[C@@H](C(C)(C)O)OC2=C(CC=C(C)C)C(=O)[C@@]1(C(=O)C(C)C)C3=O | > 40 | > 40 | > 40 | > 40 | > 40 | –
4 | CC(C)=CCC[C@]1(C)[C@@H](CC=C(C)C)C[C@]2(CC=C(C)C)C(=O)[C@@]3(CC=C(C)C)OC2(O)[C@]1(C(=O)C(C)C)C3=O | > 40 | > 40 | > 40 | > 40 | > 40 | –
5 | CC(C)=CCC[C@]1(C)[C@@H](CC=C(C)C)C[C@]23C[C@@H](C(C)(C)O)OC2=C(CC=C(C)C)C(=O)[C@@]1(C(=O)c1ccccc1)C3=O | > 40 | > 40 | > 40 | > 40 | > 40 | –
6 | CC(C)=CC[C@]12C[C@@H]3[C@@H]4[C@@H](O)C(C)(C)[C@@H](C(C)(C)O)CC4(C1=O)C(=O)[C@](C(=O)c1ccccc1)(C2=O)C3(C)C | 20.8 | 28.4 | 17.1 | 24.9 | > 40 | –
7 | CC(C)=CCC/C(C)=C/C[C@]12C[C@@H]3[C@@H]4[C@@H](O)C(C)(C)[C@@H](C(C)C)CC4(C1=O)C(=O)[C@](C(=O)c1ccccc1)(C2=O)C3(C)C | 14.2 | 17.6 | 14.5 | 13.3 | 19.1 | –
8 | CC(C)=CCC/C(C)=C/C[C@]12C[C@@H]3[C@H](C=C(C)C)[C@](CC=C(C)C)(C1=O)C(=O)[C@](C(=O)c1ccccc1)(C2=O)C3(C)C | > 40 | > 40 | > 40 | > 40 | > 40 | –
9 | CCC(C)C(=O)[C@@]12C(=O)C(CC=C(C)C)=C3O[C@H](C(C)(C)O)C[C@]3(C[C@H](CC=C(C)C)[C@@]1(C)CCC=C(C)C)C2=O (some centres undefined) | > 40 | > 40 | > 40 | > 40 | > 40 | –
10 | CC(C)=CC[C@]12C[C@@H]3[C@H](C=C(C)C)[C@](CC=C(C)C)(C1=O)C(=O)[C@](C(=O)c1ccccc1)(C2=O)C3(C)C [PLUKENETIONE A] | 16.6 | 27.7 | 23.6 | 19.8 | > 40 | –
11 | CC(=O)O[C@H]1C(=O)[C@@]2(C)[C@H]([C@H](OC(=O)c3ccccc3)[C@]3(O)C[C@H](OC(=O)[C@H](O)[C@@H](NC(=O)c4ccccc4)c4ccccc4)C(C)=C1C3(C)C)[C@]1(OC(C)=O)CO[C@@H]1C[C@@H]2O [PACLITAXEL] | < 0.008 | < 0.008 | < 0.008 | < 0.008 | < 0.008 | –
12 | C/C(=C\C[C@]12C[C@H]3C[C@@H]4C(C)(C)CC[C@@]4(C1=O)C(=O)[C@](C(=O)c1ccccc1)(C2=O)C3(C)C)CC/C=C/C(C)C | – | – | – | – | – | 9.8
13 | CCC(C)C(=O)[C@]12C(=O)[C@]3(CC=C(C)C)C[C@H](CC=C(C)C)[C@@]1(C)CC[C@@H](C(C)(C)O)OC2=C(CC=C(C)C)C3=O (some centres undefined) | – | – | – | – | – | 37.2
14 | CC(C)=CC[C@]12C[C@@H]3[C@@H]4[C@@H](O)C(C)(C)[C@@H](C(C)C)CC4(C1=O)C(=O)[C@](C(=O)c1ccccc1)(C2=O)C3(C)C | 16.5 | 14.1 | 16.5 | 14.2 | 17.4 | 26.4
15 | CCC(C)C(=O)[C@]12C(=O)[C@]3(CC=C(C)C)OC1(O)[C@](CC=C(C)C)(C[C@H](CC=C(C)C)[C@@]2(C)CCC=C(C)C)C3=O (some centres undefined) | > 40 | > 40 | > 40 | > 40 | > 40 | –
16 | C=C(C)[C@H]1CC[C@@](C)(O)[C@@H](C2=C(O)C(CC=C(C)C)(CC=C(C)C)C(=O)C(C(=O)C(C)C)=C2O)C1 | – | – | – | – | – | 25.4
17 | CC(C)=CC[C@H]1C[C@]23C[C@H]4C(C)(C)c5ccccc5C(=O)[C@]45C(=O)[C@](CC=C(C)C)(C2=O)[C@@H](CC=C(C)C)[C@@]1(C)[C@@]35O | 20.8 | 27.7 | 14 | 19.3 | > 40 | –
